# Data as given in patent US7172875B2, “Identifying inhibitors of intracellular protein fibrillization” (The Ohio State University Research Foundation, priority 2003, dated 2007).
# Legend:
# α-synuclein [1] = biological target: T1, α-synuclein (Homo sapiens, UniProt P37840); assay: α-synuclein polymerization, Thioflavin T assay; assay type: biochemical
# T1 construct: His-tag; made in house
# Protocol: (§1) α-synuclein Polymerization Assays. Under standard conditions, α-synuclein (4–70 μM) was incubated with AA or other polymerization inducers (25–3000 μM) in Assembly Buffer (10 mM HEPES, pH 7.4, 100 mM NaCl, 5 mM DTT) at 37° C. for 3–26 h, without agitation. Various inducer concentrations were prepared by serial dilution of stock solutions. Control reactions were normalized for 1:1 H2O isopropanol vehicle, which was limited to 5% in all reactions. Samples were processed for electron microscopy and fluorescence spectroscopy as described below.
# Thioflavin T assay. α-synuclein (4–70 μM) was incubated in Assembly Buffer in the presence of 20 μM thioflavin T, with or without assembly inducers, in 96-well plates. Aggregation was monitored by following thioflavin T fluorescence (λex=[…]; in a Flex Station plate reader (Molecular Devices, Sunnyvale, Calif.).
# α-synuclein [2] = biological target: T1, α-synuclein; assay: α-synuclein polymerization, electron microscopy; assay type: biochemical; conditions: 37° C.; standard polymerization conditions
# Protocol: as §1
# Electron Microscopy. Aliquots of polymerization reactions were taken, treated with 2% glutaraldehyde (final concentration), mounted on formvar/carbon coated 300 mesh grids, and negatively stained with 2% uranyl acetate as described previously (King et al., 1999). Images were viewed in a Phillips CM 12 transmission electron microscope operated at 65 kV. Random images were captured on film at 8,000–22,000X magnification, digitized at 600 dots-per-inch resolution, and imported into Optimas 6.5.1 for quantification of filament lengths and numbers. Individual filaments were defined as any object greater than 50 nm in its long axis and were counted manually.
# htau40 [3] = biological target: T2, htau40 (Homo sapiens, UniProt P10636); conditions: synthetic filaments aggregated 3 h with AA; Ref. 12; cited from earlier work
# T2 construct: His-tag; made in house
# htau40 [4] = biological target: T2, htau40; assay: Disaggregation of preaggregated tau followed by ThS fluorescence; assay type: biochemical
# [5] = CMC measurements for SDS (Corrin-Harkins analysis of CMC depression); assay type: physicochemical; conditions: literature values
# Protocol: CMC values for SDS were estimated at 37° C. using N-phenyl-1-naphthylamine as described previously, except that various concentrations of protamine, histone, α-synuclein, or htau40 were included with the samples. Detergent stock solutions were prepared in 1:1 water isopropanol.
# Analytical Methods. Dependence of detergent CMC on protein concentration was fit to the empirical Corrin-Harkins equation: log CMC=−kCH(log n)+bCH (1) where n is the molar concentration of protein or salt and kCH and bCH are constants. The slope of these curves, kCH, approximates the proportion of detergent micelles that are ionized.
# htau40 [6] = biological target: T2, htau40; assay: tau aggregation assay, electron microscopy quantification of filament lengths; assay type: biochemical; conditions: 10 μM concentration; data not shown
# Protocol: Aggregation assays. Under standard conditions, htau40 (4 μM) was incubated without agitation in Assembly Buffer (10 mM HEPES, pH 7.4, 100 mM NaCl, 5 mM dithiothreitol) at 37° C. for up to 168 h in the presence or absence of fibrillization inducer (AA, alkyl sulfate detergents, or carboxylate modified polystyrene beads). All samples incubated for more than 24 h were kept under argon in parafilm-sealed tubes. Samples were processed for assay by electron microscopy as described below.
# Electron Microscopy Assays. […] Random images were viewed in a Phillips CM 12 transmission electron microscope operated at 65 kV, captured on film at 8,000–100,000-fold magnification, digitized at 600 dots-per-inch resolution, and imported into Optimas 6.5.1 for quantification of filament lengths and numbers. Individual filaments (defined as any object greater than 50 nm in its long axis with both ends visible in the field of view) were counted manually. […]
# [formula] where y is total filament length (50 nm cutoff) measured at time t, yo is total filament length at time zero, t50 is time to 50% maximum fibrillization, A is the maximum total filament length at equilibrium, and kapp is the apparent first order rate constant for fibril growth in units of time^−1. […]
# T2 sequence (P10636 1-441 isoform P10636-8): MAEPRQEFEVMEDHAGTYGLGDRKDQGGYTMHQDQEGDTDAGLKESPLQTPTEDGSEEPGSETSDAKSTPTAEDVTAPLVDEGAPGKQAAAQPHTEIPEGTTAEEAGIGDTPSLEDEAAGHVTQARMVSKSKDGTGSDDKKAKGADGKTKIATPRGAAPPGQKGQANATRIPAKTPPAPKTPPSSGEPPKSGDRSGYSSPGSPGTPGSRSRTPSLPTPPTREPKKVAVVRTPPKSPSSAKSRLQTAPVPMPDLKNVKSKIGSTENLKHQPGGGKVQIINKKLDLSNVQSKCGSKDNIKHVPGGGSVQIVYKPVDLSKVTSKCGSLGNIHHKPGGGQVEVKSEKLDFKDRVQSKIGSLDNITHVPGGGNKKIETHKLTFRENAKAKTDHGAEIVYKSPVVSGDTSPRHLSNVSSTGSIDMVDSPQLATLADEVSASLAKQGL
compound,measurement,setting,value
CCCCCCCCCCCCOS(=O)(=O)[O-].[Na+] [C12H25SO4Na],threshold inducer concentration for induction of α-synuclein fibrillization,"α-synuclein [1]; 16 h at 37° C., α-synuclein 5-30 μM",approximately 100 μM
Heparin,Thioflavin T signal,"α-synuclein [1]; heparin 25–3000 μM saccharide monomer, both forms of heparin",< 600 counts
same,induction of α-synuclein fibrillization (Thioflavin T fluorescence),"α-synuclein [1]; α-synuclein 30 μM, 16 h at 37° C.",only weakly
same,induction of α-synuclein polymerization seen by electron microscopy,α-synuclein [2],little measurable polymerization
"CCCCC/C=C\C/C=C\C/C=C\C/C=C\CCCC(=O)O [AA, Arachidonic acid]",slope constant b of exponential filament length distribution,htau40 [3],−5.4±0.2 μm^−1
same,decay slower than dilution in buffer alone,htau40 [4]; 50 μM arachidonic acid,50 fold
same,first order decay rate of ThS fluorescence after 20-fold dilution,htau40 [4]; additive in Assembly Buffer: 50 μM arachidonic acid or 2 μM htau40,0.5 h⁻¹
same,induction of α-synuclein polymerization seen by electron microscopy,α-synuclein [2],induced
Phosphatidylserine,induction of α-synuclein polymerization seen by electron microscopy,α-synuclein [2],Abundant filaments and/or filamentous conglomerates
phosphatidic acid,induction of α-synuclein polymerization seen by electron microscopy,α-synuclein [2],second in potency
"uteroglobulin^4-14: hydrophobic undecapeptide of neutral net charge with two positive charges; literature values (PSFQRVIETLL; UniProt P11684 25-35, looked up, fragment)",potency of CMC depression relative to NaCl on a molar basis,[5],1000 fold
phosphatidylcholine,induction of α-synuclein polymerization seen by electron microscopy,α-synuclein [2],least efficient inducer
thioflavin S [ThS],inhibition of tau fibrillization,htau40 [6],not inhibitory
